Two compounds from US4997926A, “Deaminase-stable anti-retroviral 2-halo-2',3'-dideoxy” (Scripps Clinic and Research Foundation, priority 1987, dated 1991) can be followed below.

One data set deals with wild type CEM T cells. Type of data set: in vitro ADME, human. How it is done: Extracts of wild type CEM cells that had been incubated with 3 uM [8-^3 H]-2-chloro-2',3'-dideoxyadenosine for 4 hours were fractionated by ion exchange high performance liquid chromatography (HPLC). Detected radioactive peaks corresponded to the free deoxynucleoside and to the 5'-mono-, di- and tri-phosphates, respectively. The total intracellular 2-chloro-2',3'-dideoxynucleotide content was 30 pmols/10^8 cells. The identity of the peaks was confirmed by enzymatic dephosphorylation, and reverse phase HPLC in the presence of authentic 2-chloro-2',3'-dideoxyadenosine.
(§1) ^1 Human CEM T cells, or variants deficient in either deoxycytidine
(§2) kinase, or deoxycytidine kinase plus adenosine kinase, were incubated at
(§3) density of 5 × 10^7 cells/ml in medium containing 3 uM [8^3
(§4) H2-chloro-2',3dideoxyadenosine. After 4 hours, the nucleotides in the
(§5) methanolsoluble extracts were determined after separation by HPLC, as
(§6) described in the Materials and Methods.
(§7) The human T lymphoblastoid cell line, CCRF-CEM, and mutants deficient in either deoxycytidine kinase (clone AraC-8D), or deoxycytidine kinase plus adenosine kinase (clone AraC-8DM10-5) were obtained and propagated as described previously [Foley et al., (1965) Cancer, 18:552-529 and Hershfield et al., (1982) J. Biol. Chem., 257:6380-6386]. For metabolic studies, the cells were cultured in RPMI 1640 medium supplemented with 2 mM L-glutamine and 10 percent fetal bovine serum at a density of 2×10^7 cells/ml in the presence of radiolabelled dideoxynucleosides, as indicated earlier. Some cultures were pre-incubatedfor 30 minutes either with 5 uM 2'-deoxycoformycin or 50 uM coformycin. After 4 hours of incubation the cells were harvested by centrifugation.
(§8) The cell pellets were washed with Hank's balanced salt solution at 4 degrees C., and extracted with 1 ml 60 percent methanol/water at -20 degrees C. for 10 minutes. Initial studies included 2',3'-dideoxyadenosine5'-triphosphate as an internal recovery marker. The nucleotides were fractionated by high performance liquid chromatography on an Whatman Partisil-10 SAX column, applying a gradient of zero to 100 percent buffer B in buffer A. Buffer A was 7 mM potassium phosphate pH 3.4. Buffer B was 0.5 M potassium phosphate, pH 3.4, one M KCl. The flow rate was 1.5 ml/minute, 1 minute fractions were collected. Buffer A was used alone for the first ten fractions after which elution with Buffer B began and was continued through fraction thirty, after which the eluting buffer was completely Buffer B. The nucleoside was eluted by about fraction six. The monophosphate eluted between about fractions fifteen and eighteen, the diphosphate between about fractions twenty-seven and thirty-two, and the triphosphate eluted between about fractions fifty-one and about sixty-five.

Data set [1] concerns deoxycytidine kinase deficient CEM T cells (clone AraC-8D). Type of data set: in vitro ADME, human. On the procedure: as §1, §2, §3, §4, §5, §6, §7, §8
For data set [2], the system named is HIV (strain LAV) in MT-2 cells. Put plainly: HIV-induced syncytia formation and cytopathic effect in MT-2 T lymphoblasts. Type of data set: cell-based. The source says: The anti-HIV activities of the 2-halo-2',3'-dideoxyadenosine derivatives were first assayed in human MT-2 T lymphoblasts, as this system readily permitted a differentiation between anti-retroviral and anti-proliferativeeffects Exposure of the MT-2 T cell line to cell-free HIV led to the formation of syncytia within 4-5 days, and to a parallel decline in cell viability.
The MT-2 human lstoid cell line, which carries the human T cell leukemia virus type I (HTLV-1) genome, was used to assess the cytopathic effects of HIV, and the protective effects of the various nucleosides. […] The formation of syncytia, with resultant cell death, depends upon the expression on the cell-surface of the HIV envelope glycoproteins gp160, gp120, and gp4l, by cells that bear the differentiation antigen CD4 (T4) [Lipson et al., (1986) Nature, 323:725-728].
In the reported studies, the formation of syncytia in the MT-2 cell line (provided by J. Riggs and M. Aschen, State Department of Public Health, Berkelye, CA) was a sensitive and reproducible system to follow both the course of HIV infection and the potential cytotoxic effects of the added nucleosides. HIV (strain LAV) maintained in CEM cell culture was obtained from F. Barre-Sinoussi, J. C. Chermann and L. Montagnier (Institute Pasteur, Paris).
Cell-free virus was prepared by mixing LAV-infected CEM cells with two liters of 2×10^6 cells/ml of uninfected CEM cells at a ratio of 1:20 and incubating at 37 degrees C. for six days at which time, more than 80 percent of the cells expressed the p24 (gag) antigen using mouse monoclonal antibody M33, obtained from F. Vernoese di Marzo and M. Sarngadharan (Litton Bionetics, Rockville, Md.) using an enzyme immunofiltration staining method [Cleveland et al. (1987) J. Clin. Microbiol., 25:416-420]. The cells were centrifuged at 750×g for 10 minutes. The clarified supernatant was then titered by terminal dilution assay in 96 well microtiter plates containing 6×10^4 MT-2 cells per well suspended in a final volume of 200 ul RPMI 1640 medium containing 10 percent fetal bovine serum, 2 mM glutamine and […].
When HIV was added to this microtiter culture system at a multiplicity of infection of 0.1 TCID50 /cell, multinucleated giant cells appeared within 48 hours, and the majority of cells were fused in syncytia structures by day 4. The appearance of giant cells correlated with detectable antigens and RNA of HIV.
For measurement of antiviral activity, different concentrations of the assayed compounds were added to duplicate wells at the time of infection, and the cultures were incubated at 37 degrees C. After 4 and 5 days, the numbers of syncytia per culture were enumerated microscopically.
The results presented herein were confirmed in five separate experiments. Controls containing uninfected and infected cells with and without anti-retroviral nucleosides were included.
The results were expressed in semi-quantitative units that take into account the growth pattern of MT-2, and the ability of the HIV to cause both syncytia formation and cell death. In this unit system, 1 corresponds to 1-3 syncytia per well and no change in cell count compared to control cultures lacking virus; 2 corresponds to 3-10 syncytia per well and up to 20 percent cell death; 3 corresponds to 10-30 syncytia per well and a 20-70 percent drop in cell viability; 4 corresponds to more than 30 syncytia well and at least a 70 percent fall in the viable cell count.
Background: Protection from cytopathic effect is a common read-out in antiviral testing.

Setting [3] is: Deoxycytidine kinase deficient CEM, 3 uM, 4 hours.

Take `Nc1ncnc2c1ncn2[C@H]1CC[C@@H](CO)O1` [2',3'-dideoxyadenosine, reference compound]: the “2',3'-dideoxyadenosine uptake” value (in the data set with wild type CEM T cells; in data set [1]) was 20-30 pmols/10^8 cells in each case. For the same compound, the “cytopathic effect of HIV / virus-induced cell killing” value in data set [2] is “inhibit the cytopathic effect of HIV”.
As for `Nc1nc(Cl)nc2c1ncn2[C@H]1CC[C@@H](CO)O1` [2-chloro-2',3'-dideoxyadenosine], the “intracellular dideoxynucleotide content after 4 hours” value in the data set with wild type CEM T cells (CEM 2 × 10^7 cells/ml, 37 degrees C., 3 uM 2-Cl-ddA or 2 uM ddA) is recorded as approximately 30 pmols/10^8 cells. In the data set with wild type CEM T cells (Wild Type CEM, 3 uM, 4 hours), the “Nucleotide Formed, Diphosphate” value came to 2.8 pmols/10^8 cells/4 hrs; the “Nucleotide Formed, Triphosphate” value was determined as 24.3 pmols/10^8 cells/4 hrs; the “total intracellular 2-chloro-2',3'-dideoxynucleotide content” value came to 30 pmols/10^8 cells. In the data set on wild type CEM T cells (Wild Type CEM, 3 uM, 4 hours, 5 × 10^7 cells/ml), the “Nucleotide Formed, Monophosphate” value is 3.0 pmols/10^8 cells/4 hrs. For the same compound, in data set [1] (setting [3]), the “Nucleotide Formed, Diphosphate” value worked out at 0.8 pmols/10^8 cells/4 hrs; the “Nucleotide Formed, Monophosphate” value is 1.7 pmols/10^8 cells/4 hrs; the “Nucleotide Formed, Triphosphate” value was found to be 3.4 pmols/10^8 cells/4 hrs. Besides, the “accumulated phosphates relative to wild type CEM cells” value in data set [1] (deoxycytidine kinase deficient CEM variant, same culture conditions) is given as “about 20%”. Also, the HIV-induced syncytia formation result in data set [2] (10 uM) is on record as “blocked syncytia formation”.
